Measured values reported in patent US20240109900A1, “AZABICYCLIC SHP2 INHIBITORS” (IRBM S.P.A., priority 2021, published 2024).

Experiments:
[1] = system: ERK phosphorylation in KYSE-520 cells; assay: Phospho-ERK cellular assay; assay type: cell-based; details: Homo sapiens, KYSE-520, 2 h, KYSE-520 cells, 2 h at 37° C., phospho-ERK1/2 (Thr202/Tyr204) TR-FRET; read-out: PERK IC50
Outline: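 TR-FRET read-out of ERK1/2 Thr202/Tyr204 phosphorylation was taken after overnight antibody incubation at room temperature. Before that, KYSE-520 cells were treated 2 h at 37 °C with compound dilutions and lysed 30 min. Percent inhibition relative to vehicle and cell-free wells was fitted four-parametrically to give IC50.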

[2] = molecular target: SHP-2 enzyme (Met1-Leu525) (Homo sapiens (Human), UniProt Q06124); assay: SHP2 inhibition enzymatic assay; assay type: biochemical; details: 0.5 nM SHP-2 activated by 500 nM IRS1 peptide, 75 μM DiFMUP substrate; read-out: SHP2wt-IC50
SHP-2 enzyme (Met1-Leu525), sequence (Q06124 1-525): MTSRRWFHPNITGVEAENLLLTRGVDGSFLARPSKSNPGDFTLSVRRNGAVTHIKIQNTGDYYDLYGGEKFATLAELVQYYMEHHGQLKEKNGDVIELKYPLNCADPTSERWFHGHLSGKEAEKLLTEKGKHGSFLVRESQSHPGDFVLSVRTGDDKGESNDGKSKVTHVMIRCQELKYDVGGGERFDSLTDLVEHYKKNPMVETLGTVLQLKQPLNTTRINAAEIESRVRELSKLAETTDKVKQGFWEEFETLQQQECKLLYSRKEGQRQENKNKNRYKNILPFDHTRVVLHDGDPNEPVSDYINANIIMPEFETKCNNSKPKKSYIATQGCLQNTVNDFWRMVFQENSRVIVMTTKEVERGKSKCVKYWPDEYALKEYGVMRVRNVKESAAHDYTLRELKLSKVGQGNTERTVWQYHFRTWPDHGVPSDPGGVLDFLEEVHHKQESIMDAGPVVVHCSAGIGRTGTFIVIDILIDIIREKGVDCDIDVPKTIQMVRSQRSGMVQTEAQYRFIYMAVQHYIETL
Outline: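 SHP-2 (Met1-Leu525), 0.5 nM, activated with 500 nM IRS1 bis-phosphopeptide, preincubated 30 min with compounds in HEPES pH 7.2 buffer with 5 mM DTT. 75 μM DiFMUP added for 30 min at room temperature, stopped with bpV; fluorescence read. IC50 from four-parameter logistic fit of % inhibition.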

Row | SMILES | IC50 [1] [nM] | IC50 [2] [nM]
1 | Cn1cc2c(Cl)c(-c3n[nH]c4nc(N5CC[C@@H]6[C@H](C5)[C@@]6(CN)c5ccccc5F)cnc34)ccc2n1 [Example 203, ((1S,6R,7R)-3-(3-(4-chloro-2-methyl-2H-indazol-5-yl)-1H-pyrazolo[3,4-b]pyrazin-6-yl)-7-(2-fluorophenyl)-3-azabicyclo[4.1.0]heptan-7-yl)methanamine] | < 1000 | < 500
2 | COCCn1cc2c(Cl)c(-c3n[nH]c4nc(N5CC[C@@H]6[C@H](C5)[C@@]6(CN)c5ccccc5F)cnc34)ccc2n1 [Example 393, ((1S,6R,7R)-3-(3-(4-chloro-2-(2-methoxyethyl)-2H-indazol-5-yl)-1H-pyrazolo[3,4-b]pyrazin-6-yl)-7-(2-fluorophenyl)-3-azabicyclo[4.1.0]heptan-7-yl)methanamine] | < 1000 | < 500
3 | CCOc1ccc(-c2n[nH]c3nc(N4CC[C@@H]5[C@H](C4)[C@@]5(CN)c4ccccc4F)cnc23)c2cccnc12 [Example 164, ((1S,6R,7R)-3-(3-(8-ethoxyquinolin-5-yl)-1H-pyrazolo[3,4-b]pyrazin-6-yl)-7-(2-fluorophenyl)-3-azabicyclo[4.1.0]heptan-7-yl)methanamine] | < 1000 | < 500
4 | NC[C@]1(c2ccccc2F)[C@@H]2CCN(c3cnc4c(-c5ccc6cc(Cl)cnc6c5)n[nH]c4n3)C[C@@H]21 [Example 255, ((1S,6R,7R)-3-(3-(3-chloroquinolin-7-yl)-1H-pyrazolo[3,4-b]pyrazin-6-yl)-7-(2-fluorophenyl)-3-azabicyclo[4.1.0]heptan-7-yl)methanamine] | > 5000 | < 500
5 | Cc1csc(C2(CN)C3CCN(c4cnc5c(Sc6ccnc(N)c6Cl)n[nH]c5n4)CC32)n1 (centres unmarked) [Example 93, 4-((6-(7-(aminomethyl)-7-(4-methylthiazol-2-yl)-3-azabicyclo[4.1.0]heptan-3-yl)-1H-pyrazolo[3,4-b]pyrazin-3-yl)thio)-3-chloropyridin-2-amine] | < 1000 | < 500
6 | NC[C@]1(c2ccccc2F)[C@@H]2CCN(c3cnc4c(Sc5ccnc(N)c5Cl)n[nH]c4n3)C[C@@H]21 [Example 397, 4-((6-((1S,6R,7R)-7-(aminomethyl)-7-(2-fluorophenyl)-3-azabicyclo[4.1.0]heptan-3-yl)-1H-pyrazolo[3,4-b]pyrazin-3-yl)thio)-3-chloropyridin-2-amine] | < 1000 | < 500

Next, values leading:

Row | IC50 [1] [nM] | IC50 [2] [nM] | SMILES
7 | < 1000 | < 500 | NC[C@]1(c2ccccc2F)[C@@H]2CCN(c3cnc4c(-c5ccc6ccncc6c5)n[nH]c4n3)C[C@@H]21 [Example 248, ((1S,6R,7R)-7-(2-fluorophenyl)-3-(3-(isoquinolin-7-yl)-1H-pyrazolo[3,4-b]pyrazin-6-yl)-3-azabicyclo[4.1.0]heptan-7-yl)methanamine]
8 | < 1000 | < 500 | Cc1cc(C2(CN)C3CCN(c4cnc5c(-c6cccc7c6CNC7=O)n[nH]c5n4)CC32)no1 (centres unmarked) [Example 19, 4-(6-(7-(aminomethyl)-7-(5-methylisoxazol-3-yl)-3-azabicyclo[4.1.0]heptan-3-yl)-1H-pyrazolo[3,4-b]pyrazin-3-yl)isoindolin-1-one]
9 | < 1000 | < 500 | NC[C@]1(c2cc(F)ccc2F)[C@@H]2CCN(c3cnc(Sc4ccnc(N)c4Cl)c(N)n3)C[C@@H]21 [Example 414, 3-((2-amino-3-chloropyridin-4-yl)thio)-6-((1S,6R,7R)-7-(aminomethyl)-7-(2,5-difluorophenyl)-3-azabicyclo[4.1.0]heptan-3-yl)pyrazin-2-amine]
10 | < 1000 | < 500 | Cn1c(=O)[nH]c2ccc(-c3n[nH]c4nc(N5CC[C@@H]6[C@H](C5)[C@@]6(CN)c5ccccc5F)cnc34)cc21 [Example 320, 6-(6-((1S,6R,7R)-7-(aminomethyl)-7-(2-fluorophenyl)-3-azabicyclo[4.1.0]heptan-3-yl)-1H-pyrazolo[3,4-b]pyrazin-3-yl)-1-methyl-1,3-dihydro-2H-benzo[d]imidazol-2-one]
